From patent publication US12264134B2 (Merck Sharp & Dohme LLC, priority 2018, dated 2025)

Tests used:
IDO1 [1] = biological target: T1, IDO1 (Homo sapiens, UniProt P14902); test: IDO1 Human Whole blood Assay; format: cell-based; parameters: Human whole blood was drawn in sodium heparin coated tubes from healthy internal donors; from tissue; host or cells: human whole blood from healthy donors, stimulated with LPS and IFNγ; settings: LPS and IFNγ stimulated, 18 h, read-out: Human Whole Blood Potency, IC50
Procedure, shortened: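 LC/MS/MS of kynurenine, normalized to spiked isotope-labeled standard (3 μM final), served as the readout. Beforehand, fresh human blood with compound (15 min preincubation) was stimulated overnight (18 h, 37 °C) with 100 ng/mL LPS/IFNγ. IC50 was obtained by four-parameter curve fitting.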

IDO1 [2] = biological target: T1, IDO1; test: IDO1 Cellular Assay in HeLa Cells Stimulated with IFNγ; format: cell-based; settings: read-out: HeLa Cell Potency, IC50

T1 sequence (P14902 whole entry): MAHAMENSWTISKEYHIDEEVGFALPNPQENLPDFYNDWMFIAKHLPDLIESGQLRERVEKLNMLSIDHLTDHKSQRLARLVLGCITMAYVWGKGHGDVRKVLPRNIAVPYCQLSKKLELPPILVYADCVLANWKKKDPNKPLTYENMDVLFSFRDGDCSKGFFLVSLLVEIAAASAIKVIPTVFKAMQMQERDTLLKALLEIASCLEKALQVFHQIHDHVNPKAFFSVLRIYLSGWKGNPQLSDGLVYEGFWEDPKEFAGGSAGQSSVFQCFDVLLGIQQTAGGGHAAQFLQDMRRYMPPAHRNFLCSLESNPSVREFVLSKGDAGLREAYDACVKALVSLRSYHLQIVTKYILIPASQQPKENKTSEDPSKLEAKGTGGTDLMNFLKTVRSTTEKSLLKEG

Row | IC50 (IDO1 [1]) [µM] | IC50 (IDO1 [2]) [µM] | SMILES
1 | 0.101 | 0.00416 | Cc1cccc(N2CCN(C(=O)Cn3nc(C(=O)N4CCC(NC(=O)CO)CC4)c4c3CCCC4)CC2)c1C [Example 473]
2 | 0.052 | 0.00426 | Cc1cccc(N2CCN(C(=O)Cn3nc(C(=O)N4CC[C@H](O)[C@H](F)C4)c4c3CCCC4)CC2)c1C [Example 475, 1-(4-(2,3-dimethylphenyl)piperazin-1-yl)-2-(3-((3R,4S)-3-fluoro-4-hydroxypiperidine-1-carbonyl)-4,5,6,7-tetrahydro-1H-indazol-1-yl)ethanone]
3 | 0.164 | 0.00545 | Cc1cccc(N2CCN(C(=O)Cn3nc(C(=O)N4CC[C@@H](O)[C@@H](F)C4)c4c3CCCC4)CC2)c1C [Example 476, 1-(4-(2,3-dimethylphenyl)piperazin-1-yl)-2-(3-((3S,4R)-3-fluoro-4-hydroxypiperidine-1-carbonyl)-4,5,6,7-tetrahydro-1H-indazol-1-yl)ethanone]
4 | 0.061 | 0.00553 | Cc1cccc(N2CCN(C(=O)Cn3nc(C(=O)N4CCC(O)(CF)CC4)c4c3CCCC4)CC2)c1C [Example 477, 1-(4-(2,3-dimethylphenyl)piperazin-1-yl)-2-(3-(4-(fluoromethyl)-4-hydroxypiperidine-1-carbonyl)-4,5,6,7-tetrahydro-1H-indazol-1-yl)ethanone]
5 | 0.137 | 0.00715 | Cc1cccc(N2CCN(C(=O)Cn3nc(C(=O)N4CCC(NC(=O)CCO)CC4)c4c3CCCC4)CC2)c1C [Example 478, N-(1-(1-(2-(4-(2,3-dimethylphenyl)piperazin-1-yl)-2-oxoethyl)-4,5,6,7-tetrahydro-1H-indazol-3-carbonyl)piperidin-4-yl)-3-hydroxypropanamide]
6 | 0.23 | 0.00751 | Cc1cccc(N2CCN(C(=O)Cn3nc(C(=O)N4CCC(N)CC4)c4c3C[C@H]3C[C@@H]43)CC2)c1C [Example 479, 2-((3bR,4aR)-3-(4-aminopiperidine-1-carbonyl)-3b,4,4a,5-tetrahydro-1H-cyclopropa [3,4]cyclopenta[1,2-c]pyrazol-1-yl)-1-(4-(2,3-dimethylphenyl)piperazin-1-yl)ethanone]
7 | 0.09 | 0.00874 | Cc1cccc(N2CCN(C(=O)Cn3nc(C(=O)N4CCN(C(=O)CO)CC4)c4c3CCCC4)CC2)c1C [Example 480, 1-(4-(2,3-dimethylphenyl)piperazin-1-yl)-2-(3-(4-(2-hydroxyacetyl)piperazin-1-carbonyl)-4,5,6,7-tetrahydro-1H-indazol-1-yl)ethanone]
8 | 2.71 | 0.00321 | Cc1cccc(N2CCN(C(=O)Cn3nc(C(=O)N4CCC(O)CC4)c4c3CCC4)C3(CC3)C2)c1C [compound 392]
